Experimental data taken from US10201542B2, “Formulations of pyrimidinedione derivative compounds” (AbbVie Inc., priority 2012, dated 2019).

Experiment: Solution-based crystallization study, in situ UV/Vis probe
Assay type: physicochemical
Settings: absence of polymer (control); pH 6.8 buffer, start about 80 μg/mL, FIG. 13-A
Protocol: Several polymers (Kollidon VA64, HPMC E5, HPMC K3, PVP K30, and Vitamin E TPGS) were evaluated for their effectiveness in inhibiting or delaying precipitation of the free acid of Compound A through a solution-based mechanism. About 0.05 mL of a highly concentrated solution of Compound A monosodium salt monohydrate dissolved in dimethyl sulfoxide (16 mg/mL on a free acid equivalent weight basis) was added to 10 mL of pH 6.8 sodium phosphate buffer (50 mM phosphate with ionic strength adjusted to 0.155 M with sodium chloride) containing one of the polymers at one of […] different concentrations (0% (control), 0.001%, 0.01%, and 0.1% (weight polymer/volume buffer %)) to provide a supersaturated Compound A solution (about 80 μg/mL on a free acid equivalent weight basis). The supersaturated solution was continuously stirred at 300 rpm at ambient temperatures (about 26° C.) and the solution concentration was monitored for 30 minutes by an in situ UV/Vis dip probe (μDISS Profiler™, pION Inc, Woburn, Mass. 01801, USA) using an external standard.

- concentration of Compound A in the solution after decrease: about 20 μg/mL
SMILES: COc1c(-c2ccc3cc(NS(C)(=O)=O)ccc3c2)cc(-n2ccc(=O)[nH]c2=O)cc1C(C)(C)C [Compound A, N-(6-(3-tert-butyl-5-(2,4-dioxo-3,4-dihydropyrimidin-1(2H)-yl)-2-methoxyphenyl)naphthalen-2-yl)methanesulfonamide]
